Biological target: T1, BCL6 (Homo sapiens, UniProt P41182)
T1 construct: endogenous in cells; host or cells: T47D breast cancer epithelial cells
Assay: Immunofluorescence high content imaging of BCL6 degradation in T47D cells
Type: cell-based
Conditions: T47D breast cancer epithelial cells, 3 days incubation
In short: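 T47D breast cancer cells treated 3 days at 37 °C with an 11-point 3-fold dilution series (top final 0.1 or 1 μM). Fixed with 4% PFA, Triton-permeabilised, stained with anti-BCL6 rabbit antibody plus Alexa-488 secondary, CellMask and Hoechst; imaged at 10×, 4 fields/well.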

DC50 [µM] | Dmax [%] | SMILES
< 0.01 | 50 to 70 | CNC(=O)COc1cc2cc(Nc3nc(N4CCC(CN5CCC(N6CCN(c7ccc8c(c7F)CN(C7CCC(=O)NC7=O)C8=O)CC6)C(F)(F)C5)CC4)ncc3Cl)ccc2n(C(C)C)c1=O (stereo not drawn) [Compound 42, 2-({6-[(5-chloro-2-{4-[(4-{4-[2-(2,6-dioxopiperidin-3-yl)-4-fluoro-1-oxo-3H-isoindol-5-yl]piperazin-1-yl}-3,3-difluoropiperidin-1-yl)methyl]piperidin-1-yl}pyrimidin-4-yl)amino]-1-isopropyl-2-oxoquinolin-3-yl}oxy)-N-methylacetamide]
< 0.01 | 50 to 70 | CNC(=O)COc1cc2cc(Nc3nc(N4CCC(CN5CCC(N6CCC(c7ccc8c(c7F)CN(C7CCC(=O)NC7=O)C8=O)CC6)C(F)(F)C5)CC4)ncc3Cl)ccc2n(C(C)C)c1=O (stereo not drawn) [Compound 43, 2-{[6-({5-chloro-2-[4-({4-[2-(2,6-dioxopiperidin-3-yl)-4-fluoro-1-oxo-2,3-dihydro-1H-isoindol-5-yl]-3′,3′-difluoro-[1,4′-bipiperidin]-1′-yl}methyl)piperidin-1-yl]pyrimidin-4-yl}amino)-2-oxo-1-(propan-2-yl)-1,2-dihydroquinolin-3-yl]oxy}-N-methylacetamide]
< 0.01 | 50 to 70 | CNC(=O)COc1cc2cc(Nc3nc(N4CCC(CN5CCC(C6CCN(c7ccc8c(c7F)CN(C7CCC(=O)NC7=O)C8=O)CC6)C(F)C5)CC4)ncc3Cl)ccc2n(C(C)C)c1=O (stereo not drawn) [Compound 44, 2-{[6-({5-chloro-2-[4-({1′-[2-(2,6-dioxopiperidin-3-yl)-4-fluoro-1-oxo-2,3-dihydro-1H-isoindol-5-yl]-3-fluoro-[4,4′-bipiperidin]-1-yl}methyl)piperidin-1-yl]pyrimidin-4-yl}amino)-2-oxo-1-(propan-2-yl)-1,2-dihydroquinolin-3-yl]oxy}-N-methylacetamide]
